Results published in patent US9284284B2, “Oxazine derivatives and their use in the treatment of disease” (NOVARTIS AG, priority 2011, dated 2016).
Read-outs that look alike come from different tables or passages of the source.

Experiments:
[1] = tested on: amyloid peptide 1-40 release; assay: Test 4: Inhibition of Cellular Release of Amyloid Peptide 1-40; assay type: cell-based; settings: Chinese hamster ovary cells transfected with the human gene for amyloid precursor protein, 24 hours, read-out: Amyloid-β1-40 release IC50
Description: Chinese hamster ovary cells are transfected with the human gene for amyloid precursor protein. The cells are plated at a density of 8000 cells/well into 96-well microtiter plates and cultivated for 24 hours in DMEM cell culture medium containing 10% FCS. The test compound is added to the cells at various concentrations, and the cells are cultivated for 24 hours in the presence of the test compound. […] The potency of the compound is calculated from the percentage of inhibition of amyloid peptide release as a function of the test compound concentration.

human BACE-1 = human BACE-1 (Homo sapiens (Human), UniProt P56817); assay: Test 1: Inhibition of Human BACE-1; assay type: biochemical; settings: recombinant BACE-1, pH 4.5, fluorescence-quenched substrate
human BACE-1, sequence (P56817 46-457): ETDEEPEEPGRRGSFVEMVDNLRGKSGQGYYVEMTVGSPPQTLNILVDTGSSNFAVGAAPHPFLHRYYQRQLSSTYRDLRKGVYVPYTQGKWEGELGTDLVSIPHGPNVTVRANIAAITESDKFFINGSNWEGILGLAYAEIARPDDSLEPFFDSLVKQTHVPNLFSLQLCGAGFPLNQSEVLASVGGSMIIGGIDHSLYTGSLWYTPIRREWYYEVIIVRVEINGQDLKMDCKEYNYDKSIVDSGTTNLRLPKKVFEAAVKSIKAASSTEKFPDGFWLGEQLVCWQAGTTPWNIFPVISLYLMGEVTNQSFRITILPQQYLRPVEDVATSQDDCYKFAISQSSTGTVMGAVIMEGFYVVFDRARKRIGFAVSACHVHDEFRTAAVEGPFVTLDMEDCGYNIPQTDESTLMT
Description: Test 1: Inhibition of Human BACE-1
(§1) Recombinant BACE-1 (extracellular domain, expressed in baculovirus and purified using standard methods) at 0.1 to 1 nM concentrations is incubated with the test compound at various concentrations for 1 hour at room temperature in 100 mM acetate buffer, pH 4.5, containing 0.1% CHAPS. Activity was measured using a final concentration of 3 μM of the fluorescence-quenched substrate Q-C(HSO3)-Ile-Asp-Leu-Ala-Val-Leu-Asp-HN—CH2—CH2-Mca, where Q=2-nitro-5-amino benzoic acid and Mca=7-methoxy-4-coumarinyl acetic acid. […] Fluorescence increase was followed for 15 min, in 1 minute's intervals. The fluorescence/time slopes were calculated from duplicate wells and from wells without inhibitor and the IC50 values were calculated using a logistic 4-parameter model.

human BACE-2 = human BACE-2 (Homo sapiens (Human), UniProt Q9Y5Z0); assay: Test 2: Inhibition of Human BACE-2; assay type: biochemical; settings: recombinant BACE-2, pH 4.5, fluorescence-quenched substrate
human BACE-2, sequence (Q9Y5Z0 63-473): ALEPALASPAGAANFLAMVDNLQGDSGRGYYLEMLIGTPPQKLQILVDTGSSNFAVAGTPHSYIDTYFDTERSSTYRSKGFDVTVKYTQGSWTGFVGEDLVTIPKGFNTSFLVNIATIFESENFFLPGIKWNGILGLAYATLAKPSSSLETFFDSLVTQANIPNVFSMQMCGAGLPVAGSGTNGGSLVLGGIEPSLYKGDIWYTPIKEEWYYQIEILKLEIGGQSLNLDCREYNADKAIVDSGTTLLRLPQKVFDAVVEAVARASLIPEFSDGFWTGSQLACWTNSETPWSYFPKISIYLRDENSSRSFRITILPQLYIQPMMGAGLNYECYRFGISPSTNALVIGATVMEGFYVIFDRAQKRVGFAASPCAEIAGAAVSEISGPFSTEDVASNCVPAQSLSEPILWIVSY
Description: Test 2: Inhibition of Human BACE-2
as §1, with “BACE-2” for “BACE-1”

Structure (SMILES) | IC50 ([1]; Cricetulus griseus) [nM] | IC50 (human BACE-1) [nM] | IC50 (human BACE-2) [nM] | IC50 [1] [nM]
COc1nccnc1Nc1ccc(F)c([C@]2(C(F)F)COCC(N)=N2)c1 [Example 18, (R)-5-Difluoromethyl-5-[2-fluoro-5-(3-methoxy-pyrazin-2-ylamino)-phenyl]-5,6-dihydro-2H-[1,4]oxazin-3-ylamine] | 670 | 2400 | 1300 | –
Cn1nc(Nc2cccc([C@]3(C)COCC(N)=N3)c2)c2ccccc21 [Example 32, [3-((R)-5-Amino-3-methyl-3,6-dihydro-2H-[1,4]oxazin-3-yl)-phenyl]-(1-methyl-1H-indazol-3-yl)-amine] | 8300 | > 10000 | > 10000 | –
NC1=N[C@@](c2cc(Nc3nccn4ccnc34)ccc2F)(C(F)F)COC1 [Example 13, [3-((R)—S-Amino-3-difluoromethyl-3,6-dihydro-2H-[1,4]oxazin-3-yl)-4-fluoro-phenyl]-imidazo[1,2-a]pyrazin-8-yl-amine] | – | 1400 | 410 | 260
C[C@@]1(c2nc(Nc3ncnc4cc(C(F)(F)F)cnc34)ccc2F)CO[C@@](C)(C(F)(F)F)C(N)=N1 [Example 28, [6-((3R,6R)-5-Amino-3,6-dimethyl-6-trifluoromethyl-3,6-dihydro-2H-[1,4]oxazin-3-yl)-5-fluoro-pyridin-2-yl]-(7-trifluoromethyl-pyrido[3,2-d]pyrimidin-4-yl)-amine] | 150 | 68 | 200 | –
NC1=N[C@@](c2cc(Nc3ncnc4cc(Cl)cnc34)ccc2F)(C(F)F)COC1 [Example 7] | 22 | 36 | 32 | –

Second part, led by results:

IC50 ([1]; Cricetulus griseus) [nM] | IC50 (human BACE-1) [nM] | IC50 (human BACE-2) [nM] | Structure (SMILES) | IC50 [1] [nM]
380 | 1900 | 2400 | CC1(c2cc(NCc3ccco3)ccc2F)COCC(N)=N1 (stereo not drawn) [Example 4, 5-{2-Fluoro-5-[(furan-2-ylmethyl)-amino]-phenyl}-5-methyl-5,6-dihydro-2H-[1,4]oxazin-3-ylamine] | –
2300 | 8600 | > 10000 | NC1=N[C@@](c2cc(Nc3ncccn3)ccc2F)(C(F)F)COC1 [Example 16, (R)-5-Difluoromethyl-5-[2-fluoro-5-(pyrimidin-2-ylamino)-phenyl]-5,6-dihydro-2H-[1,4]oxazin-3-ylamine] | –
56 | 300 | 89 | COc1cccnc1Nc1ccc(F)c([C@]2(C(F)F)COCC(N)=N2)c1 [Example 15, (R)-5-Difluoromethyl-5-[2-fluoro-5-(3-methoxy-pyridin-2-ylamino)-phenyl]-5,6-dihydro-2H-[1,4]oxazin-3-ylamine] | –
310 | 1300 | 160 | CCOc1cccnc1Nc1ccc(F)c([C@]2(C(F)F)COCC(N)=N2)c1 [Example 19, (R)-5-Difluoromethyl-5-[5-(3-ethoxy-pyridin-2-ylamino)-2-fluoro-phenyl]-5,6-dihydro-2H-[1,4]oxazin-3-ylamine] | –
